Where “and” joins values, the source holds several entries; their conditions need not be identical. Identical values can stand only once. Like-named read-outs stand apart in the source and are kept apart here. Marks after values point to notes of the source that are not given here.
Assay: Pharmacokinetics in hGLP-1R mice after oral dosing
Type: in vivo, male C57BL/6J hGLP-1R mouse
Procedure: IPGTT (120 min)—PK bleeding: 40 μL blood samples (all treatment groups) were collected from mice under the jaw at IPGTT-120 min after blood glucose measurement into pre-chilled EDTA-2K tubes. Blood samples were processed for plasma by centrifugation at 4° C., 3200×g for 10 min. 15 μL plasma was stored at −80° C. for PK analysis. From 4 mice in Group 7 of the PD cohort, whole brain was collected after blood is harvested at 120 min post dose, rinsed with saline and patted dry and placed into a pre-weighed tube and stored at −80° C. collected for PK analysis.
PK bleeding group design is described in Table 9.
PK bleeding: 30 μL blood was collected at 0.25, 0.5, 1, 2, 4, and 8 h. Blood samples were processed for plasma by centrifugation at 4° C., 3200×g for 10 min. 12 μL plasma was collected at −80° C. for further analysis. From 3 mice in Group 7 of the PK cohort, whole brain was collected after blood is harvested at 8 hr post dose, rinsed with saline and patted dry and placed into a pre-weighed tube and stored at −80° C. collected for PK analysis.
For plasma: An aliquot of 3 μL sample was protein precipitated with 60 μL internal standard (100 ng/mL Labetalol & 100 ng/ml Dexamethasone & 100 ng/ml Tolbutamide & 100 ng/mL Verapamil & 100 ng/ml Glyburide & 100 ng/ml Celecoxib in ACN) and then the mixture was vortex-mixed for 10 min at 800 rpm and centrifuged for 15 min at 3220×g, 4° C.
The linear/log trapezoidal rule was applied in obtaining the PK parameters. Individual plasma concentration values that were below the lower limit of quantitation (LOQ) were excluded from the PK parameter calculation. The nominal dose levels and nominal sampling times were used in the calculation of all pharmacokinetic parameters.

[1] = hGLP-1R mouse plasma, PO 0.3 mg/kg, individual mice, 0.3 mg/kg
[2] = hGLP-1R mouse plasma, PO 0.3 mg/kg, mean
[3] = hGLP-1R mouse plasma, PO 1 mg/kg, individual mice, 1 mg/kg
[4] = hGLP-1R mouse plasma, PO 1 mg/kg, mean
[5] = hGLP-1R mouse plasma, PO 3 mg/kg, individual mice, 3 mg/kg
[6] = hGLP-1R mouse plasma, PO 3 mg/kg, mean

Structure (SMILES): N#Cc1ccc(COc2cccc(C3CCN(Cc4nc5ccc(C(=O)O)cc5n4Cc4cncs4)CC3)n2)c(F)c1 [Compound 2]
- higher AUClast than Reference Compound A (hGLP-1R mice, PO 0.3 mg/kg): four-fold
- higher Cmax than Reference Compound A (hGLP-1R mice, PO 0.3 mg/kg): three-fold
- higher AUClast than Reference Compound A (hGLP-1R mice, PO 1.0 mg/kg): approximately 4.6 fold
- higher Cmax than Reference Compound A (hGLP-1R mice, PO 1.0 mg/kg): approximately 5.7 fold
- increase in exposure values over a ten-fold increase in dose (hGLP-1R mice, PO 0.3 to 3 mg/kg): 22 fold
- increase of exposure with dose (dose proportionality) (hGLP-1R mice, PO, Reference Compound A 0.3-1 mg/kg, Compound 2 0.3-3 mg/kg): greater than proportional manner
- Concentration (hGLP-1R mouse plasma collected at 120 min (IPGTT cohort), PO 0.3 mg/kg, individual animals, 0.3 mg/kg): 26.1 ng/mL and 11.5 ng/mL and 15.0 ng/mL and 31.4 ng/mL and 17.3 ng/mL and 17.2 ng/mL and 13.1 ng/mL
- Concentration (hGLP-1R mouse plasma collected at 120 min (IPGTT cohort), PO 1 mg/kg, individual animals, 1 mg/kg): 61.2 ng/mL and 53.6 ng/mL and 148 ng/mL and 60.4 ng/mL and 60.3 ng/mL and 48.9 ng/mL and 56.3 ng/mL
- Concentration (hGLP-1R mouse plasma collected at 120 min (IPGTT cohort), PO 3 mg/kg, individual animals, 3 mg/kg): 159 ng/mL and 227 ng/mL and 555 ng/mL and 301 ng/mL and 239 ng/mL and 229 ng/mL and 231 ng/mL
- Concentration (hGLP-1R mouse plasma, PO 0.3 mg/kg, 0.25 h, individual animals, 0.3 mg/kg): 66.8 ng/mL and 116 ng/mL and 52.2 ng/mL
- Concentration (hGLP-1R mouse plasma, PO 0.3 mg/kg, 0.5 h, individual animals, 0.3 mg/kg): 60.3 ng/mL and 118 ng/mL
- Concentration (hGLP-1R mouse plasma, PO 0.3 mg/kg, 1 h, individual animals, 0.3 mg/kg): 49.2 ng/mL and 55.8 ng/mL
- Concentration (hGLP-1R mouse plasma, PO 0.3 mg/kg, 2 h, individual animals, 0.3 mg/kg): 18.2 ng/mL and 6.53 ng/mL and 7.14 ng/mL
- Concentration (hGLP-1R mouse plasma, PO 0.3 mg/kg, 4 h, individual animals, 0.3 mg/kg): 7.15 ng/mL and 1.84 ng/mL and 2.23 ng/mL
- Concentration (hGLP-1R mouse plasma, PO 0.3 mg/kg, 8 h, individual animals, 0.3 mg/kg): 1.64 ng/mL and BQL
- AUC0-inf [1]: 90.4 ng·h/mL and 120 ng·h/mL
- AUC0-last [1]: 87.0 ng·h/mL and 117 ng·h/mL
- AUCExtra [1]: 5.66% and 3.76% and 1.86%
- AUMCExtra [1]: 25.0% and 22.4% and 10.0%
- Cmax [1]: 66.8 ng/mL and 118 ng/mL
- MRT0-inf [1]: 2.49 h and 1.69 h and 0.928 h
- MRT0-last [1]: 1.98 h and 1.36 h and 0.851 h
- T1/2 [1]: 2.08 h and 1.44* h and 0.691* h
- Tlast [1]: 8.00 h (2×) and 4.00 h
- Tmax [1]: 0.250 h
- AUCExtra [2]: 3.76%
- AUMCExtra [2]: 19.1%
- Concentration (hGLP-1R mouse plasma, PO 1 mg/kg, 0.25 h, individual animals, 1 mg/kg): 208 ng/mL and 224 ng/mL
- Concentration (hGLP-1R mouse plasma, PO 1 mg/kg, 0.5 h, individual animals, 1 mg/kg): 256 ng/mL and 265 ng/mL
- Concentration (hGLP-1R mouse plasma, PO 1 mg/kg, 1 h, individual animals, 1 mg/kg): 183 ng/mL and 156 ng/mL
- Concentration (hGLP-1R mouse plasma, PO 1 mg/kg, 2 h, individual animals, 1 mg/kg): 77.6 ng/mL and 36.6 ng/mL and 31.7 ng/mL
- Concentration (hGLP-1R mouse plasma, PO 1 mg/kg, 4 h, individual animals, 1 mg/kg): 8.59 ng/mL and 6.36 ng/mL
- Concentration (hGLP-1R mouse plasma, PO 1 mg/kg, 8 h, individual animals, 1 mg/kg): 4.90 ng/mL and 6.23 ng/mL and 3.07 ng/mL
- Tlast (hGLP-1R mouse plasma, PO 1 mg/kg, individual mice): 8.00 h
- AUC0-inf [3]: 366 ng·h/mL and 326 ng·h/mL
- AUC0-last [3]: 352 ng·h/mL and 320 ng·h/mL
- AUCExtra [3]: 1.78% and 3.97% and 1.84%
- AUMCExtra [3]: 11.9% and 22.6% and 12.9%
- Cmax [3]: 256 ng/mL and 265 ng/mL
- MRT0-inf [3]: 1.81 h and 1.42 h
- MRT0-last [3]: 1.46 h and 1.26 h
- T1/2 [3]: 1.62* h and 1.36* h
- AUCExtra [4]: 2.53%
- AUMCExtra [4]: 15.8%
- Tlast [4]: 8.00 h
- Concentration (hGLP-1R mouse plasma, PO 3 mg/kg, 0.25 h, individual animals, 3 mg/kg): 823 ng/mL and 1030 ng/mL and 2870 ng/mL
- Concentration (hGLP-1R mouse plasma, PO 3 mg/kg, 0.5 h, individual animals, 3 mg/kg): 982 ng/mL and 937 ng/mL and 3450 ng/mL
- Concentration (hGLP-1R mouse plasma, PO 3 mg/kg, 1 h, individual animals, 3 mg/kg): 592 ng/mL and 387 ng/mL and 1990 ng/mL
- Concentration (hGLP-1R mouse plasma, PO 3 mg/kg, 2 h, individual animals, 3 mg/kg): 157 ng/mL and 100 ng/mL and 655 ng/mL
- Concentration (hGLP-1R mouse plasma, PO 3 mg/kg, 4 h, individual animals, 3 mg/kg): 48.1 ng/mL and 35.1 ng/mL and 170 ng/mL
- Tlast (hGLP-1R mouse plasma, PO 3 mg/kg, individual mice): 8.00 h
- AUC0-inf [5]: 1923 ng·h/mL and 1229 ng·h/mL and 4707 ng·h/mL
- AUC0-last [5]: 1497 ng·h/mL and 1154 ng·h/mL and 4673 ng·h/mL
- AUCExtra [5]: 22.2% and 6.12% and 0.710%
- AUMCExtra [5]: 63.8% and 30.6% and 4.74%
- Cmax [5]: 982 ng/mL and 1030 ng/mL and 3450 ng/mL
- MRT0-inf [5]: 4.39 h and 2.08 h and 1.46 h
- MRT0-last [5]: 1.54 h
- T1/2 [5]: 3.21* h and 1.68* h and 1.19 h
- Tmax [5]: 0.250 h
- AUCExtra [6]: 9.68%
- AUMCExtra [6]: 33.0%
- Tlast [6]: 8.00 h
- AUC(0-t) (male, C57BL/6J hGLP-1R, mouse, plasma, po, 0.3 mg/kg, hGLP-1R mice, total, PO 0.3 mg/kg, read-out: AUClast Mean): 107 ng·h/mL
- Cmax (male, C57BL/6J hGLP-1R, mouse, plasma, po, 0.3 mg/kg, hGLP-1R mice, total, PO 0.3 mg/kg, read-out: Cmax Mean): 82.7 ng/mL
- half-life (male, C57BL/6J hGLP-1R, mouse, plasma, po, 0.3 mg/kg, hGLP-1R mice, total, PO 0.3 mg/kg, read-out: T1/2 (converted)): 1.4 h
- Tmax (male, C57BL/6J hGLP-1R, mouse, plasma, po, 0.3 mg/kg, hGLP-1R mice, total, PO 0.3 mg/kg, read-out: Tmax Median): 0.5 h
- concentration at 120 min (male, C57BL/6J hGLP-1R, mouse, plasma, po, 0.3 mg/kg, hGLP-1R mouse plasma collected at 120 min (IPGTT cohort), PO 0.3 mg/kg, read-out: Mean Concentration): 18.8 ng/mL
- concentration at 0.25 h (male, C57BL/6J hGLP-1R, mouse, plasma, po, 0.3 mg/kg, hGLP-1R mouse plasma, PO 0.3 mg/kg, 0.25 h, read-out: Mean Concentration): 78.3 ng/mL
- concentration at 0.5 h (male, C57BL/6J hGLP-1R, mouse, plasma, po, 0.3 mg/kg, hGLP-1R mouse plasma, PO 0.3 mg/kg, 0.5 h, individual animals, read-out: Concentration): 63.4 ng/mL

Reference: patent US12522596B2, “Compounds as GLP-1R agonists” (Terns Pharmaceuticals, Inc., priority 2021, dated 2026)
